Measurements as given in PubChem BioAssay AID224 (DTP/NCI, 2004).
“And” between values parts separate entries of the source, which are not always exact repeats. Equal values may be shown once. Toxic doses and inconclusive results are not listed. Starred links: 1 amine or outer side, 2 acyl side, 3 side chain; linkers in the order of their positions; H or OH if unused. Positions of bridges follow the written chain, without caps; N, C: chain ends. Non-standard residues stand in square brackets, D forms with d. Residues, ends and D or L forms follow the SMILES beside them. Chains are numbered I, II in the order given. Actinocin(9to1) = Cc1c2oc3c(C)ccc(C(=O)[*:1])c3nc-2c(C(=O)[*:2])c(N)c1=O; aThr = C[C@H](O)[C@H](N)C(=O)O; NMeV = CN[C@H](C(=O)O)C(C)C; Sar = CNCC(=O)O

Test system: P335 leukemia ip, BDF1 mice, survival T/C %
Experiment: NCI In Vivo Anticancer Drug Screen. Data for tumor model P335 Leukemia (intraperitoneal) in B6D2F1 (BDF1) mice
Conditions: endpoint: mean survival time, schedule: Q01DX Z (ip), higher = longer survival
Method: The antitumor activity of compounds was measured in mice bearing transplantable tumors. Survival or tumor size were measured and the results are expressed as the measurement made in the treated group (T) divided by the measurement made in the vehicle treated control group (C). The tumor model used in this assay is P335 Leukemia (intraperitoneal) in B6D2F1 (BDF1) mice

[1] = dose: 6.25 mg/kg/injection, vehicle: carboxymethylcellulose (CMC)
[2] = dose: 12.5 mg/kg/injection, vehicle: carboxymethylcellulose (CMC)
[3] = dose: 25.0 mg/kg/injection, vehicle: carboxymethylcellulose (CMC)

C[C@]12CC[C@H](OC3OC(CO)C(O)C(O)C3O)C[C@H]1CC[C@@H]1[C@@H]2CC[C@]2(C)[C@@H](C3=CCOC3=O)CC[C@]12O (stereo not given in full)
T/C (dose: 0.04 mg/kg/injection, vehicle: saline): 97 % of control
T/C (dose: 0.08 mg/kg/injection, vehicle: saline): 96 % of control
T/C (dose: 0.16 mg/kg/injection, vehicle: saline): 92 % of control
T/C (dose: 0.31 mg/kg/injection, vehicle: saline): 86 % of control

CC(=O)OCC1OC(n2ncc(=O)[nH]c2=O)C(OC(C)=O)C1OC(C)=O (stereo not given)
T/C (dose: 25.0 mg/kg/injection, vehicle: other): 120 % of control
T/C (dose: 50.0 mg/kg/injection, vehicle: other): 109 % of control
T/C (dose: 99.0 mg/kg/injection, vehicle: other): 114 % of control
T/C (dose: 187.5 mg/kg/injection, vehicle: other): 124 % of control
T/C (dose: 188.0 mg/kg/injection, vehicle: other): 114 % of control

O=CN(O)CC(=O)O
T/C (dose: 125.0 mg/kg/injection, vehicle: none): 87 % of control
T/C (dose: 250.0 mg/kg/injection, vehicle: none): 95 % of control
T/C (dose: 500.0 mg/kg/injection, vehicle: carboxymethylcellulose (CMC)): 109 % of control
T/C (dose: 500.0 mg/kg/injection, vehicle: none): 89 % of control
T/C (dose: 1000.0 mg/kg/injection, vehicle: carboxymethylcellulose (CMC)): 93 % of control

Nc1ncnc2[nH]ncc12
T/C [1]: 89 % of control
T/C [2]: 92 % of control

C[n+]1c2ccccc2nc2c(N)cc(N)cc21
T/C (dose: 1.6 mg/kg/injection, vehicle: carboxymethylcellulose (CMC)): 94 % of control
T/C (dose: 3.1 mg/kg/injection, vehicle: carboxymethylcellulose (CMC)): 86 % of control
T/C (dose: 6.2 mg/kg/injection, vehicle: carboxymethylcellulose (CMC)): 97 % of control
T/C [1]: 124 % of control
T/C [2]: 100 % of control and 114 % of control
T/C [3]: 120 % of control

C[N+](C)(C)c1ncnc2nc[nH]c12
T/C [2]: 107 % of control
T/C [3]: 94 % of control
T/C (dose: 50.0 mg/kg/injection, vehicle: carboxymethylcellulose (CMC)): 110 % of control
T/C (dose: 100.0 mg/kg/injection, vehicle: carboxymethylcellulose (CMC)): 87 % of control and 107 % of control

C=CC(CN1CC1)OC(C)=O (stereo not given)
T/C (dose: 0.47 mg/kg/injection, vehicle: carboxymethylcellulose (CMC)): 106 % of control
T/C (dose: 0.95 mg/kg/injection, vehicle: carboxymethylcellulose (CMC)): 110 % of control
T/C (dose: 1.9 mg/kg/injection, vehicle: carboxymethylcellulose (CMC)): 103 % of control

CN(C)c1ccc(/C=C\c2ccnc3ccccc23)cc1
T/C (dose: 0.8 mg/kg/injection, vehicle: water): 100 % of control
T/C (dose: 1.6 mg/kg/injection, vehicle: water): 98 % of control
T/C (dose: 3.1 mg/kg/injection, vehicle: water): 102 % of control
T/C (dose: 6.2 mg/kg/injection, vehicle: water): 109 % of control

Cc1c2oc3c(C)ccc(C(=O)N[C@@H]4C(=O)N[C@H](C(C)C)C(=O)N5CCC[C@H]5C(=O)N(C)CC(=O)N(C)[C@@H](C(C)C)C(=O)O[C@H]4C)c3nc-2c(C(=O)N[C@@H]2C(=O)N[C@H](C(C)C)C(=O)N3CCC[C@H]3C(=O)N(C)CC(=O)N(C)[C@@H](C(C)C)C(=O)O[C@H]2C)c(N)c1=O (I: [aThr][dV]P[Sar][NMeV] / II: [aThr][dV]P[Sar][NMeV]; ester I:1-I:C, II:1-II:C; linker I:N-II:N via Actinocin(9to1))
T/C (dose: 0.8 micrograms/kg/injection, vehicle: saline): 106 % of control
T/C (dose: 1.6 micrograms/kg/injection, vehicle: saline): 106 % of control
T/C (dose: 2.5 micrograms/kg/injection, vehicle: saline): 96 % of control
T/C (dose: 4.9 micrograms/kg/injection, vehicle: saline): 102 % of control
T/C (dose: 6.4 micrograms/kg/injection, vehicle: saline): 120 % of control
T/C (dose: 9.8 micrograms/kg/injection, vehicle: saline): 98 % of control
T/C (dose: 19.5 micrograms/kg/injection, vehicle: saline): 88 % of control
T/C (dose: 38.9 micrograms/kg/injection, vehicle: saline): 122 % of control
T/C (dose: 51.2 micrograms/kg/injection, vehicle: saline): 115 % of control
T/C (dose: 102.4 micrograms/kg/injection, vehicle: saline): 103 % of control

Nc1nc(N)c2nc(CNc3ccc(C(=O)NC(CCC(=O)O)C(=O)O)cc3)cnc2n1 (stereo not given)
T/C (dose: 16.0 micrograms/kg/injection, vehicle: alkali diluted with saline): 96 % of control
T/C (dose: 31.0 micrograms/kg/injection, vehicle: alkali diluted with saline): 121 % of control
T/C (dose: 62.0 micrograms/kg/injection, vehicle: alkali diluted with saline): 169 % of control
T/C (dose: 63.0 micrograms/kg/injection, vehicle: alkali diluted with saline): 96 % of control
T/C (dose: 250.0 micrograms/kg/injection, vehicle: alkali diluted with saline): 98 % of control

O[C@H](CN1CC1)[C@@H](O)CN1CC1
T/C (dose: 1.8 micrograms/kg/injection, vehicle: carboxymethylcellulose (CMC)): 95 % of control
T/C (dose: 3.7 micrograms/kg/injection, vehicle: carboxymethylcellulose (CMC)): 111 % of control
T/C (dose: 7.5 micrograms/kg/injection, vehicle: carboxymethylcellulose (CMC)): 119 % of control
T/C (dose: 15.0 micrograms/kg/injection, vehicle: carboxymethylcellulose (CMC)): 109 % of control

Nc1nc(=S)c2ncn(C3OC(CO)C(O)C3O)c2[nH]1 (stereo not given)
T/C (dose: 0.16 mg/kg/injection, vehicle: carboxymethylcellulose (CMC)): 93 % of control
T/C (dose: 0.31 mg/kg/injection, vehicle: carboxymethylcellulose (CMC)): 117 % of control
T/C (dose: 0.63 mg/kg/injection, vehicle: carboxymethylcellulose (CMC)): 90 % of control
T/C (dose: 1.25 mg/kg/injection, vehicle: carboxymethylcellulose (CMC)): 90 % of control

O=P1(N(CCCl)CCCl)NCCCO1 (stereo not given)
T/C (dose: 6.25 mg/kg/injection, vehicle: saline): 113 % of control
T/C (dose: 200.0 mg/kg/injection, vehicle: saline): 107 % of control

CC1CCOS(=O)O1 (stereo not given)
T/C (dose: 10.0 mg/kg/injection, vehicle: carboxymethylcellulose (CMC)): 91 % of control
T/C (dose: 20.0 mg/kg/injection, vehicle: carboxymethylcellulose (CMC)): 113 % of control
T/C (dose: 40.0 mg/kg/injection, vehicle: carboxymethylcellulose (CMC)): 117 % of control
T/C (dose: 80.0 mg/kg/injection, vehicle: carboxymethylcellulose (CMC)): 107 % of control

CS(=O)(=O)OCCCCOS(C)(=O)=O
T/C (dose: 0.2 mg/kg/injection, vehicle: methylcellulose (MC)): 87 % of control
T/C (dose: 0.4 mg/kg/injection, vehicle: methylcellulose (MC)): 100 % of control
T/C (dose: 0.8 mg/kg/injection, vehicle: methylcellulose (MC)): 98 % of control
T/C (dose: 1.6 mg/kg/injection, vehicle: methylcellulose (MC)): 89 % of control and 104 % of control
T/C (dose: 6.4 mg/kg/injection, vehicle: methylcellulose (MC)): 94 % of control
T/C (dose: 12.8 mg/kg/injection, vehicle: methylcellulose (MC)): 94 % of control
T/C (dose: 25.6 mg/kg/injection, vehicle: methylcellulose (MC)): 87 % of control

NC(N)=Nc1nc2ccccc2o1
T/C (dose: 2.0 mg/kg/injection, vehicle: carboxymethylcellulose (CMC)): 92 % of control
T/C (dose: 8.0 mg/kg/injection, vehicle: carboxymethylcellulose (CMC)): 90 % of control
T/C (dose: 16.0 mg/kg/injection, vehicle: carboxymethylcellulose (CMC)): 90 % of control
T/C (dose: 31.0 mg/kg/injection, vehicle: carboxymethylcellulose (CMC)): 94 % of control
T/C (dose: 63.0 mg/kg/injection, vehicle: carboxymethylcellulose (CMC)): 94 % of control
T/C (dose: 125.0 mg/kg/injection, vehicle: carboxymethylcellulose (CMC)): 86 % of control
